Key:
human recombinant Btk = human recombinant Btk (Homo sapiens (Human), UniProt Q06187); test: Human Recombinant Btk Enzyme Assay; assay type: biochemical; details: human recombinant Btk 1 nM, ATP 20 μM
[1] = test system: CD69 expression on B cells in human whole blood; test: Whole Blood Assays of BCR-Stimulated CD69 Expression on B Cells; assay type: cell-based; details: anti-human IgM + IL-4 stimulation, 18 h at 37° C.
Jak2 tyrosine kinase = Jak2 tyrosine kinase (Homo sapiens (Human), UniProt O60674); test: Jak2 Tyrosine Kinase Assay; assay type: biochemical; details: for IC50: Jak2 1 nM, ATP 30 μM; for Ratio of Jak2/Btk IC50 values: selectivity for Btk over Jak2, larger value = more selective for Btk
Chain of Jak2 tyrosine kinase (O60674 whole entry): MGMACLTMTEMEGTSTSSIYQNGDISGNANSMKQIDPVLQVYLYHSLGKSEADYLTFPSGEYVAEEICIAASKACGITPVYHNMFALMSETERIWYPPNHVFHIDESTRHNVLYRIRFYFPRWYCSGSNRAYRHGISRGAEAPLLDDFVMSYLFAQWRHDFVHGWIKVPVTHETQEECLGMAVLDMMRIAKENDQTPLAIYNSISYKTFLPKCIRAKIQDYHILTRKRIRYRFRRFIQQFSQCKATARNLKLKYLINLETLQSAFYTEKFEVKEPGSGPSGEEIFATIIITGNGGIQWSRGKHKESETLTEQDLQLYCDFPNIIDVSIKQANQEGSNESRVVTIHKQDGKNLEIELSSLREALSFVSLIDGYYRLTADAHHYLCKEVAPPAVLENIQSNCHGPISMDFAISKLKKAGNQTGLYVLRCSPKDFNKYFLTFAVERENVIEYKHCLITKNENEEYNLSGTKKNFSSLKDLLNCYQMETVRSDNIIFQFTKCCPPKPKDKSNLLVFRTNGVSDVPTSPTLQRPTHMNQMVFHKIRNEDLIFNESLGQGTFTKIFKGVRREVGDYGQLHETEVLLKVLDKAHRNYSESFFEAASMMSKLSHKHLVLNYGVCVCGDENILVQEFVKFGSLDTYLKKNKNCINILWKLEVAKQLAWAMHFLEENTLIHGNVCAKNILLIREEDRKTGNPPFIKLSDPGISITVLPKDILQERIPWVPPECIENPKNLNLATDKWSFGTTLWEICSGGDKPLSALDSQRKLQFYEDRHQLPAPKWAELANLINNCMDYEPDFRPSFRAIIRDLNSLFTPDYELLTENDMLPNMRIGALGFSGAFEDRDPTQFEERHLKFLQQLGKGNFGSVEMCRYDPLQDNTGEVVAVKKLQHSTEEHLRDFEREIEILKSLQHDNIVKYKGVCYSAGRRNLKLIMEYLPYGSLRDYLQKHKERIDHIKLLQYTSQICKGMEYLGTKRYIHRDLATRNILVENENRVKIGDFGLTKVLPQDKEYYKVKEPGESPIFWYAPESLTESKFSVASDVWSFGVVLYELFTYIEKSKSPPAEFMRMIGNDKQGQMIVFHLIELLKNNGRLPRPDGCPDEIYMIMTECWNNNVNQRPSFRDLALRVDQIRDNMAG

Chain of human recombinant Btk (Q06187 whole entry): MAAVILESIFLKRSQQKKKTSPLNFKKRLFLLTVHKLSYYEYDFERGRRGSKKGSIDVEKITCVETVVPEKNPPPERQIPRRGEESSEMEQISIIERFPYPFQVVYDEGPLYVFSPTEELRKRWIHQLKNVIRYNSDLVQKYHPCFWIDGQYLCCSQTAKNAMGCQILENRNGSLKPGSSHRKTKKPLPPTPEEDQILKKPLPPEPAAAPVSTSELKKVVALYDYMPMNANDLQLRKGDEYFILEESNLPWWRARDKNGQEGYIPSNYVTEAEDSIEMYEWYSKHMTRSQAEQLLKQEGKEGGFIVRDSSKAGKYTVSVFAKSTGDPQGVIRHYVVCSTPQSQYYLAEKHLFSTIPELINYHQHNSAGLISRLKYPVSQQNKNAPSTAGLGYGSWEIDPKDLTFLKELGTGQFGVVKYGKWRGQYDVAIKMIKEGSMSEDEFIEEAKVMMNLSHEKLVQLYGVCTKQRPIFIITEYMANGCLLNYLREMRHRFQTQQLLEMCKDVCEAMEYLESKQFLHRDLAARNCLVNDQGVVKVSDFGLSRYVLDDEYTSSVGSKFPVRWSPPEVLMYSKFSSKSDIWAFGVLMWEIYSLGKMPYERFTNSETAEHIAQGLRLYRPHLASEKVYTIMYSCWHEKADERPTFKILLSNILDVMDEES

Row | SMILES | IC50 (human recombinant Btk) [nM] | IC50 ([1]; B-cell) [nM] | IC50 (Jak2 tyrosine kinase) [nM] | Ratio of Jak2/Btk IC50 values (Jak2 tyrosine kinase) | IC50 [1] [nM]
1 | COCc1ccc2c(c1)[nH]c1c(C(N)=O)ccc(-c3cccc(-n4c(=O)cc5c(F)cccn5c4=O)c3C)c12 [Example 18, 4-(3-(5-Fluoro-1,3-dioxo-1H-pyrido[1,2-c]pyrimidin-2(3H)-yl)-2-methylphenyl)-7-(methoxymethyl)-9H-carbazole-1-carboxamide] | 2.3 | 130 | 740 | 320 | 
2 | Cn1c(=O)n(-c2cccc(-c3ccc(C(N)=O)c4[nH]c5cc(C(C)(C)O)ccc5c34)c2Cl)c(=O)c2ccccc21 [Example 6, 4-(2-Chloro-3-(1-methyl-2,4-dioxo-1,2-dihydroquinazolin-3(4H)-yl)phenyl)-7-(2-hydroxypropan-2-yl)-9H-carbazole-1-carboxamide] | 5.3 | 150 | 1800 | 340 | 
3 | COc1cccc2c(=O)n(-c3cccc(-c4ccc(C(N)=O)c5[nH]c6cc(C(C)(C)O)ccc6c45)c3C)c(=O)n(C)c12 [Example 7, 7-(2-Hydroxypropan-2-yl)-4-(3-(8-methoxy-1-methyl-2,4-dioxo-1,2-dihydroquinazolin-3(4H)-yl)-2-methylphenyl)-9H-carbazole-1-carboxamide] | 1.7 | 220 | 1300 | 760 | 
4 | Cc1c(-c2ccc(C(N)=O)c3[nH]c4cc(C(C)(C)O)ccc4c23)cccc1-n1c(=O)[nH]c2c(F)cccc2c1=O (single isomer, unassigned) [Example 2, 4-(3-(8-Fluoro-2,4-dioxo-1,2-dihydroquinazolin-3(4H)-yl)-2-methylphenyl)-7-(2-hydroxypropan-2-yl)-9H-carbazole-1-carboxamide] | 2.4 |  | 850 | 350 | 200
5 | COc1cccn2c(=O)n(-c3cccc(-c4ccc(C(N)=O)c5[nH]c6cc(C(C)(C)O)ccc6c45)c3C)c(=O)cc12 [Example 12, 7-(2-Hydroxypropan-2-yl)-4-(3-(5-methoxy-1,3-dioxo-1H-pyrido[1,2-c]pyrimidin-2(3H)-yl)-2-methylphenyl)-9H-carbazole-1-carboxamide] | 0.52 | 140 | 980 | 1900 | 
6 | Cc1c(-c2ccc(C(N)=O)c3[nH]c4cc(C(C)(C)O)ccc4c23)cccc1-n1c(=O)ccn(-c2ccc(F)cc2)c1=O [Example 9, 4-(3-(3-(4-Fluorophenyl)-2,6-dioxo-2,3-dihydropyrimidin-1(6H)-yl)-2-methylphenyl)-7-(2-hydroxypropan-2-yl)-9H-carbazole-1-carboxamide] | 2.2 | 210 | 1000 | 450 | 
7 | Cc1c(-c2ccc(C(N)=O)c3[nH]c4cc(C(C)(C)O)ccc4c23)cccc1-n1c(=O)cc2c(Cl)cccn2c1=O (atropisomer, axis not shown) [Example 15, 4-(3-(S)-(5-Chloro-1,3-dioxo-1H-pyrido[1,2-c]pyrimidin-2(3H)-yl)-2-methylphenyl)-7-(2-hydroxypropan-2-yl)-9H-carbazole-1-carboxamide] | 0.41 |  | 1000 | 2400 | 59
8 | Cc1c(-c2ccc(C(N)=O)c3[nH]c4cc(NC(=O)C(C)(C)C)ccc4c23)cccc1-n1c(=O)cc2c(Cl)cccn2c1=O [Example 16, 4-(3-(5-Chloro-1,3-dioxo-1H-pyrido[1,2-c]pyrimidin-2(3H)-yl)-2-methylphenyl)-7-pivalamido-9H-carbazole-1-carboxamide] | 2.1 | 220 | 2200 | 1000 | 
9 | Cc1c(-c2ccc(C(N)=O)c3[nH]c4cc(C(C)(C)O)ccc4c23)cccc1-n1c(=O)c(F)c2ccccn2c1=O [Example 19, 4-(3-(4-Fluoro-1,3-dioxo-1H-pyrido[1,2-c]pyrimidin-2(3H)-yl)-2-methylphenyl)-7-(2-hydroxypropan-2-yl)-9H-carbazole-1-carboxamide] | 1.6 | 140 | 1900 | 1200 | 
10 | [2H]C([2H])([2H])n1c(=O)n(-c2cccc(-c3ccc(C(N)=O)c4[nH]c5cc(C(C)(C)O)ccc5c34)c2C)c(=O)c2cccc(F)c21 (atropisomer, axis not shown) [Example 4, 4-(3-(S)-(8-Fluoro-1-methyl(d3)-2,4-dioxo-1,2-dihydroquinazolin-3(4H)-yl)-2-methylphenyl)-7-(2-hydroxypropan-2-yl)-9H-carbazole-1-carboxamide] |  |  | 2000 |  | 190
11 | COc1ccn2c(=O)n(-c3cccc(-c4ccc(C(N)=O)c5[nH]c6cc(C(C)(C)O)ccc6c45)c3C)c(=O)cc2c1 [Example 11, 7-(2-Hydroxypropan-2-yl)-4-(3-(6-methoxy-1,3-dioxo-1H-pyrido[1,2-c]pyrimidin-2(3H)-yl)-2-methylphenyl)-9H-carbazole-1-carboxamide] | 0.63 | 140 | 1000 | 1600 | 
12 | Cc1c(-c2ccc(C(N)=O)c3[nH]c4cc(C(C)(C)O)ccc4c23)cccc1-n1c(=O)cc2c(Cl)cccn2c1=O [Example 14, 4-(3-(R)-(5-Chloro-1,3-dioxo-1H-pyrido[1,2-c]pyrimidin-2(3H)-yl)-2-methylphenyl)-7-(2-hydroxypropan-2-yl)-9H-carbazole-1-carboxamide] |  |  |  |  | 78
13 | Cc1c(-c2ccc(C(N)=O)c3[nH]c4cc(C(C)(C)O)ccc4c23)cccc1-n1c(=O)c2cccc(F)c2n(C)c1=O (atropisomer, axis not shown) [Example 3, 4-(3-(S)-(8-Fluoro-1-methyl-2,4-dioxo-1,2-dihydroquinazolin-3(4H)-yl)-2-methylphenyl)-7-(2-hydroxypropan-2-yl)-9H-carbazole-1-carboxamide] |  |  | 1200 |  | 190

Other lines, results leading:

Row | IC50 (human recombinant Btk) [nM] | IC50 ([1]; B-cell) [nM] | IC50 (Jak2 tyrosine kinase) [nM] | Ratio of Jak2/Btk IC50 values (Jak2 tyrosine kinase) | IC50 [1] [nM] | SMILES
14 | 1.5 | 87 | 800 | 530 |  | Cc1c(-c2ccc(C(N)=O)c3[nH]c4cc(CO)ccc4c23)cccc1-n1c(=O)cc2c(F)cccn2c1=O [Example 28, 4-(3-(5-fluoro-1,3-dioxo-1H-pyrido[1,2-c]pyrimidin-2(3H)-yl)-2-methylphenyl)-7-(hydroxymethyl)-9H-carbazole-1-carboxamide]
15 | 1.6 | 130 | 570 | 360 |  | Cc1c(-c2ccc(C(N)=O)c3[nH]c4cc(C(C)(C)O)ccc4c23)cccc1-n1c(=O)cc2sccn2c1=O [Example 20, 4-(3-(5,7-Dioxo-5H-thiazolo[3,2-c]pyrimidin-6(7H)-yl)-2-methylphenyl)-7-(2-hydroxypropan-2-yl)-9H-carbazole-1-carboxamide]
16 | 1.7 |  | 880 | 520 | 91 | Cc1c(-c2ccc(C(N)=O)c3[nH]c4cc(C(C)(C)O)ccc4c23)cccc1-n1c(=O)cc2c(F)cccn2c1=O [Example 22, 4-(3-(5-Fluoro-1,3-dioxo-1H-pyrido[1,2-c]pyrimidin-2(3H)-yl)-2-methylphenyl)-7-(2-hydroxypropan-2-yl)-9H-carbazole-1-carboxamide]
17 | 1.2 | 130 | 430 | 360 |  | CC(=O)NCc1ccc2c(c1)[nH]c1c(C(N)=O)ccc(-c3cccc(-n4c(=O)cc5c(F)cccn5c4=O)c3C)c12 [Example 30, 7-(acetamidomethyl)-4-(3-(5-fluoro-1,3-dioxo-1H-pyrido[1,2-c]pyrimidin-2(3H)-yl)-2-methylphenyl)-9H-carbazole-1-carboxamide]
18 | 1.2 |  | 1000 | 830 | 79 | Cc1c(-c2ccc(C(N)=O)c3[nH]c4cc(C(C)(C)O)ccc4c23)cccc1-n1c(=O)cc2c(F)cccn2c1=O [Example 23, 4-(3-(5-Fluoro-1,3-dioxo-1H-pyrido[1,2-c]pyrimidin-2(3H)-yl)-2-methylphenyl)-7-(2-hydroxypropan-2-yl)-9H-carbazole-1-carboxamide]
19 |  | 56 |  |  |  | Cc1c(-c2ccc(C(N)=O)c3[nH]c4cc(N(C)C)ccc4c23)cccc1-n1c(=O)cc2c(F)cccn2c1=O [Example 29, 7-(dimethylamino)-4-(3-(5-fluoro-1,3-dioxo-1H-pyrido[1,2-c]pyrimidin-2(3H)-yl)-2-methylphenyl)-9H-carbazole-1-carboxamide]
20 | 0.84 | 200 | > 2000 | >2400 |  | Cc1c(-c2ccc(C(N)=O)c3[nH]c4c(C)c(C(C)(C)O)ccc4c23)cccc1-n1c(=O)c2cccc(F)c2n(C)c1=O (atropisomer, axis not shown) [Example 26, 4-(3-(S)-(8-Fluoro-1-methyl-2,4-dioxo-1,2-dihydroquinazolin-3(4H)-yl)-2-methylphenyl)-7-(2-hydroxypropan-2-yl)-8-methyl-9H-carbazole-1-carboxamide]
21 |  | 60 |  |  |  | Cc1c(-c2ccc(C(N)=O)c3[nH]c4cc(CN5CCCC5)ccc4c23)cccc1-n1c(=O)cc2c(Cl)cccn2c1=O [Example 31, 4-(3-(5-chloro-1,3-dioxo-1H-pyrido[1,2-c]pyrimidin-2(3H)-yl)-2-methylphenyl)-7-(pyrrolidin-1-ylmethyl)-9H-carbazole-1-carboxamide]
22 |  |  |  | 29 |  | Cc1nc(C(N)=O)c2[nH]c3cc(C(C)(C)O)ccc3c2c1-c1cccc(-n2cnc3ccccc3c2=O)c1C [compound 35, 7-(2-Hydroxypropan-2-yl)-3-methyl-4-(2-methyl-3-(4-oxoquinazolin-3(4H)-yl)phenyl)-9H-pyrido[3,4-b]indole-1-carboxamide, reference compound]
